Reference: patent US20240190889A1, “NEW CYCLOPENTA-THIENO-DIAZEPINE DERIVATIVES AS GABA A GAMMA1 POSITIVE ALLOSTERIC MODULATORS” (Hoffmann-La Roche Inc., priority 2021, published 2024)
Like-named read-outs stand apart in the source and are kept apart here.

What was measured:
[1] = target: human GABAA α2β2γ1 receptor (Homo sapiens (Human), UniProt P47869+Q8N1C3); assay: Radioligand binding assay, competition for [3H]RO7239181, γ1-containing GABAA subtypes
Description: Membrane Preparation and Binding Assay for γ1-containing GABAA Subtypes
The affinity of compounds at GABAA γ1 subunit-containing receptors was measured by competition for [^3H]RO7239181 (67.3 Ci/mmol: Roche) binding to membranes from HEK293F cells (ThermoFisher R79007) expressing human (transiently transfected) receptors of composition α5β2γ1, α2β2γ1, α1β2γ1.
Harvested pellets from HEK293F cells expressing the different GABAA receptor subtypes were resuspended in Mannitol Buffer pH 7.2-7.4 (Mannitol 0.29 M, Tricthylamine 10 mM. Acetic acid 10 mM. EDTA 1 mM plus protease inhibitors (20 tablets Complete. Roche Diagnostics Cat. No. 05 056 489 001 per liter)), washed two times and then resuspended at 1:10 to 1:15 dilution in the same buffer. Cell disruption was performed by stirring the suspension in a Parr vessel #4637 at 435 psi for 15 minutes, and then the suspensions were centrifuged at 1000×g for 15 minutes at 4° C. (Beckman Avanti J-HC: rotor JS-4.2). The supernatant (S1) was transferred in a 21 Schott flask and the pellet (P1) was resuspended with Mannitol Buffer up to 175 ml. The resuspended pellet was transferred into a 250 ml Corning centrifugal beaker and centrifuged at 1500 ×g for 10 minutes at 4° C. (Beckman Avanti J-HC: rotor JS-4.2). The supernatant (S1) was then transferred in the 21 Schott flask and the pellet was discarded. The supernatants (S1) were centrifuged in 500ml Beckman polypropylene centrifugal beaker at 15 000×g for 30 minutes at 4° C. (Beckman Avanti J-20 XP; rotor JLA-10.500). The pellet (P2) was resuspended with Mannitol Buffer 1:1 and frozen at −80° C. The supernatant (S2) was centrifuged in 100 ml Beckman polypropylene centrifugal tubes at 48000×g for 50 minutes at 4 °C (Beckman Avanti J-20 XP: rotor JA-18). The supernatant (S3) was discarded and the pellet (P3) was resuspended with 1:1 Mannitol Buffer. The P2 and P3 protein concentration was determined with the BIORAD Standard assay method with bovine serum albumin as standard and measured on the NANO-Drop 1000. The membrane suspension was aliquots (500μl per tube) and stored at −80° C. until required.
Membrane homogenates were resuspended and polytronised (Polytron PT1200E Kinematica AG) in Potassium Phosphate 10 mM, KCl 100 mM binding buffer at pH 7.4 to a final assay concentration determined with a previous experiment.
Radioligand binding assays were carried out in a volume of 200 μL (96-well plates) which contained 100 μL of cell membranes. […] Assays were incubated to equilibrium for 1 hour at 4° C. and then, membranes were filtered onto unifilter (96-well white microplate with bonded GF/C filters preincubated 20-50 minutes in 0.3% Polyethylenimine) with a Filtermate 196 harvester (Packard BioScience) and washed 4 times with cold Potassium Phosphate 10 mM pH 7.4. KCl 100 mM binding buffer. After anhydrousing, filter-retained radioactivity was detected by liquid scintillation counting. Ki values were calculated using Excel-Fit (Microsoft) and are the means of two determinations.

[2] = target: h-GABA-A α2β2γ1 receptor expressed in Xenopus laevis oocytes (Homo sapiens (Human), UniProt P47869+Q8N1C3); assay: Two-electrode voltage clamp electrophysiology in Xenopus oocytes expressing GABAA receptors; assay type: cell-based; details: for Efficacy (GABA)%: % modulation of GABA EC20 = 100*(Fold increase-1), compound at 30-fold Ki α2β2γ1; for Fold increase h-GABA-A α2β2γ1 oocyte @ 30-fold Ki: GABA EC20, test compound at approx. 30-fold its Ki α2β2γ1, at least 3 oocytes
Text: Functional Expression of GABAA Receptors:
Xenopus Oocytes Preparation
Xenopus laevis oocytes at maturation stages V-VI were used for the expression of cloned mRNA encoding GABAA receptor subunits. Oocytes ready for RNA micro-injection were bought from Ecocyte, Castrop-Rauxel, Germany and stored in modified Barth's medium (composition in mM: NaCl 88, KCl 1, NaHCO3 2.4, HEPES 10, MgSO4 0.82, CaNO3 0.33, CaCl2 0.33, pH=7.5) at 20 C. until the experiment.
Xenopus Oocytes Microinjection
Oocytes were plated in 96-well plates for microinjection using the Roboinject automated instrument (MultiChannelSystems, Reutlingen, Germany). Approximately 50 nL of an aqueous solution containing the RNA transcripts for the subunits of the desired GABAA receptor subtype was injected into each oocyte. […] Oocytes were kept in modified Barth's medium (composition in mM: NaCl 88, KCl 1, NaHCO3 […], HEPES 10, MgSO4 0.82, CaNO3 0.33, CaCl2 0.33, pH=7.5) at 20° C. until the experiment.
Electrophysiological experiments were performed using the Roboocyte instrument (MultiChannelSystems, Reutlingen, Germany) on days 3 to 5 after the micro-injection of mRNA. During the experiment the oocytes were constantly superfused by a solution containing (in mM) NaCl 90, KCl 1, HEPES 5, MgCl: 1, CaCl, 1 (pH 7.4). Oocytes were impaled by two glass microelectrodes (resistance: 0.5-0.8 MS2) which were filled with a solution containing KCl 1M +K-acetate 1.5 M and voltage-clamped to −80 mV. The recordings were performed at room temperature using the Roboocyte two-electrode voltage clamp system (Multichannelsystem). After an initial equilibration period of 1.5 min GABA was added for 1.5 min at a concentration evoking approximately 20% of a maximal current response (EC20). After another rest interval of 2.5 min GABA was again added evoking a response of similar amplitude and shape. […] Current traces were recorded at a digitization rate of 10 Hz during and shortly before and after the GABA application.
Each compound and concentration was tested on at least 3 oocytes. Different oocytes were used for different compound concentrations.
For the analysis, the digitized current traces of the first and second GABA response were superimposed and, if necessary, rescaled to equal maximal amplitudes. The ratio between the two responses during the time interval of test compound application was calculated point by point. The extremum of the resulting “ratio trace” was taken as the efficacy (“Fold increase”) of the compound expressed as “% modulation of GABA EC” (100* (Fold increase-1)).

[3] = read-out: Ki h-GABAA α2β2γ1, membranes from HEK293F cells, [3H]RO7239181 20-30 nM, mean of two determinations

C[C@@H]1N=C(c2c(F)cccc2F)c2c(sc3c2C[C@@H](C(F)F)C3)-n2nc(C(=O)NCCO)nc21 [Example 18, (7S,13R)-13-(difluoromethyl)-9-(2,6-difluorophenyl)-N-(2-hydroxyethyl)-7-methyl-16-thia-2,3,5,8-tetrazatetracyclo [8.6.0.02,6.011,15]hexadeca-1(10),3,5,8,11(15)-pentaene-4-carboxamide]
Ki [1]: 5.7 nM | Ki [1, 3]: 5.7 nM | Efficacy (GABA)% [2]: 65% | Fold increase h-GABA-A α2β2γ1 oocyte @ 30-fold Ki [2]: 1.65

Cc1nnc2n1-c1sc3c(c1C(c1c(F)cccc1F)=N[C@H]2C)C[C@@H](C(F)(F)F)C3 [Example 13, (7S,13R)-9-(2,6-difluorophenyl)-3,7-dimethyl-13-(trifluoromethyl)-16-thia-2,4,5,8-tetrazatetracyclo [8.6.0.02,6.011,15]hexadeca-1(10),3,5,8,11(15)-pentaene]
Ki [1]: 16.2 nM | Ki [1, 3]: 16.2 nM | Efficacy (GABA)% [2]: 51% | Fold increase h-GABA-A α2β2γ1 oocyte @ 30-fold Ki [2]: 1.51

C[C@@H]1N=C(c2c(F)cccc2F)c2c(sc3c2C[C@@H](C(F)F)C3)-n2c(CO)cnc21 [Example 21, [(7S,13R)-13-(difluoromethyl)-9-(2,6-difluorophenyl)-7-methyl-16-thia-2,5,8-triazatetracyclo [8.6.0.02,6.011,15]hexadeca-1(10),3,5,8,11(15)-pentaen-3-yl]methanol]
Ki [1]: 2.97 nM | Ki [1, 3]: 2.97 nM | Efficacy (GABA)% [2]: 68% | Fold increase h-GABA-A α2β2γ1 oocyte @ 30-fold Ki [2]: 1.68

C[C@@H]1N=C(c2c(F)cccc2Cl)c2c(sc3c2C[C@@H](C(F)F)C3)-n2c(-c3cccnn3)nnc21 [Example 12, (7S,13R)-9-(2-chloro-6-fluoro-phenyl)-13-(difluoromethyl)-7-methyl-3-pyridazin-3-yl-16-thia-2,4,5,8-tetrazatetracyclo [8.6.0.02,6.011,15]hexadeca-1(10),3,5,8,11(15)-pentaene]
Ki [1]: 13.4 nM | Ki [1, 3]: 13.4 nM | Efficacy (GABA)% [2]: 62% | Fold increase h-GABA-A α2β2γ1 oocyte @ 30-fold Ki [2]: 1.62

Cc1nc2n(n1)-c1sc3c(c1C(c1c(F)cccc1F)=N[C@H]2C)C[C@H](C(F)F)C3 [Example 17, (7S,13S)-13-(difluoromethyl)-9-(2,6-difluorophenyl)-4,7-dimethyl-16-thia-2,3,5,8-tetrazatetracyclo [8.6.0.02,6.011,15]hexadeca-1(10),3,5,8,11(15)-pentaene]
Ki [1]: 57.9 nM | Ki [1, 3]: 57.9 nM | Efficacy (GABA)% [2]: 25% | Fold increase h-GABA-A α2β2γ1 oocyte @ 30-fold Ki [2]: 1.25

Fc1cccc(F)c1C1=NCc2nnc(C3CC3)n2-c2sc3c(c21)C[C@@H](C(F)F)C3 [Example 7, (13R)-3-cyclopropyl-13-(difluoromethyl)-9-(2,6-difluorophenyl)-16-thia-2,4,5,8-tetrazatetracyclo [8.6.0.02,6.011,15]hexadeca-1(10),3,5,8,11(15)-pentaene]
Ki [1]: 6.4 nM | Ki [1, 3]: 6.4 nM | Efficacy (GABA)% [2]: 71% | Fold increase h-GABA-A α2β2γ1 oocyte @ 30-fold Ki [2]: 1.71

Cc1nnc2n1-c1sc3c(c1C(c1c(F)cccc1F)=NC2)C[C@@H](C)C3 [Example 14, (13R)-9-(2,6-difluorophenyl)-3,13-dimethyl-16-thia-2,4,5,8-tetrazatetracyclo [8.6.0.02,6.011,15]hexadeca-1(10),3,5,8,11(15)-pentaene]
Ki [1]: 2.8 nM | Ki [1, 3]: 2.8 nM | Efficacy (GABA)% [2]: 68% | Fold increase h-GABA-A α2β2γ1 oocyte @ 30-fold Ki [2]: 1.68

Cc1nnc2n1-c1sc3c(c1C(c1c(F)cccc1Cl)=NC2)C[C@@H](C(F)F)C3 [Example 4, (13R)-9-(2-chloro-6-fluoro-phenyl)-13-(difluoromethyl)-3-methyl-16-thia-2,4,5,8-tetrazatetracyclo [8.6.0.02,6.011,15]hexadeca-1(10),3,5,8,11(15)-pentaene]
Ki [1]: 4.6 nM | Ki [1, 3]: 4.6 nM | Efficacy (GABA)% [2]: 51% | Fold increase h-GABA-A α2β2γ1 oocyte @ 30-fold Ki [2]: 1.51
